Test results reported in patent publication US8357634B2, “N-alkoxycarboxamides and their use as microbiocides” (Syngenta Crop Protection LLC, priority 2009, dated 2013).

Experiments:
[1] = test system: Mycosphaerella arachidis (Cercospora arachidicola); assay: Example B-2: Action against Mycosphaerella arachidis, fungal growth assay; type: cell-based; conditions: 0.002% active ingredient, PDB broth, 24° C., photometric after 6-7 days
Protocol: (§1) Action Against Mycosphaerella arachidis (Early Leaf Spot of Groundnut; Cercospora arachidicola [fanamorph])—Fungal Growth Assay Conidia of the fungus from cryogenic storage were directly mixed into nutrient broth (PDB potato dextrose broth). After placing a (DMSO) solution of the test compounds (0.002% active ingredient) into a microtiter plate (96-well format) the nutrient broth containing the fungal spores was added. The test plates were incubated at 24° C. and the inhibition of growth was measured photometrically after 6-7 days. The activity of a compound was expressed as fungal growth inhibition (0=no growth inhibition, ratings of 80% to 99% mean good to very good inhibition, 100%=complete inhibition).

[2] = test system: Septoria tritici; assay: Example B-3: Action against Septoria tritici, fungal growth assay; type: cell-based; conditions: Zymoseptoria tritici; 0.002% active ingredient; PDB broth, 24° C., photometric after 72 hrs
Protocol: as §1, with “Septoria tritici—Fungal” for “Mycosphaerella arachidis (Early Leaf Spot of Groundnut; Cercospora arachidicola [fanamorph])—Fungal”, “determined” for “measured”, “72 hrs.” for “6-7 days.”

[3] = test system: Erysiphe graminis f. sp. tritici; assay: Example B-5: Action against Erysiphe graminis f. sp. tritici (wheat powdery mildew), wheat leaf segments; type: in vivo; conditions: Blumeria graminis, foliar, 168 h, 0.02% active ingredient, 7 days after inoculation, read-out: preventive fungicidal activity (inhibition)
Protocol: (§2) Action Against Erysiphe graminis f. sp. tritici (Wheat Powdery Mildew) Wheat leaf segments were placed on agar in multiwell plates (24-well format) and sprayed with test solutions (0.02% active ingredient). After drying, the leaf disks were inoculated with a spore suspension of the fungus. After appropriate incubation the activity of a compound was assessed 7 days after inoculation as preventive fungicidal activity.

[4] = test system: Puccinia recondita; assay: Example B-6: Protective action against Puccinia recondita (brown rust) on wheat leaf segments; type: in vivo; conditions: foliar, 192 h, 0.02% active ingredient, 8 days after inoculation, read-out: preventive fungicidal activity (inhibition)
Protocol: as §2, with “Protective Action” for “Action”, “Puccinia recondita (Brown Rust) on Wheat” for “Erysiphe graminis f. sp. tritici (Wheat Powdery Mildew)”, “8” for “7”

[5] = test system: Pyrenophora teres; assay: Example B-8: Action against Pyrenophora teres (net blotch) on barley leaf segments; type: in vivo; conditions: foliar, 96 h, 0.02% active ingredient, 4 days after inoculation, read-out: preventive fungicidal activity (inhibition)
Protocol: as §2, with “Pyrenophora teres (Net Blotch) on Barley Barley” for “Erysiphe graminis f. sp. tritici (Wheat Powdery Mildew) Wheat”, “4” for “7”

[6] = test system: Botrvtis cinerea; assay: Example B-1: Action against Botrytis cinerea, fungal growth assay; type: cell-based; conditions: 0.002% active ingredient, PDB broth, 24° C., photometric after 3-4 days
Protocol: as §1, with “Action against Botrvtis cinerea—fungal growth assay” for “Action Against Mycosphaerella arachidis (Early Leaf Spot of Groundnut; Cercospora arachidicola [fanamorph])—Fungal Growth Assay”, “storage was” for “storage were”, “after 3-4” for “after 6-7”

[7] = test system: Puccinia recondita; assay: Example B-7: Curative action against Puccinia recondita (brown rust) on wheat leaf segments; type: in vivo; conditions: 0.02% active ingredient sprayed one day after inoculation, 8 days after inoculation; for inhibition at 0.02 % strength: Puccinia recondita, foliar, read-out: curative fungicidal activity (inhibition)
Protocol: Curative Action Against Puccinia recondita (Brown Rust) on Wheat Wheat leaf segments were placed on agar in multiwell plates (24-well format) and inoculated with a spore suspension of the fungus. One day after inoculation the leaf segments were sprayed with test solutions (0.02% active ingredient). After appropriate incubation the activity of a compound was assessed 8 days after inoculation as curative fungicidal activity.

CON(C(=O)c1cn(C)nc1C(F)F)C(C)c1ccc(I)cc1 (centres unmarked) [Compound 1.003, 3-difluoromethyl-1-methyl-1H-pyrazole-4-carboxylic acid [1-(4-iodo-phenyl)-ethyl]-methoxy-amide]
inhibition at 0.002 % strength [1]: ≥ 80% | inhibition at 0.002 % strength [2]: ≥ 80% | inhibition at 0.02 % strength [3]: ≥ 80% | inhibition at 0.02 % strength [4]: ≥ 80% | inhibition at 0.02 % strength [5]: ≥ 80% | melting point: 72 to 74 °C

CON(C(=O)c1cn(C)nc1C(F)F)C(C)c1cccc(I)c1 (centres unmarked) [Compound 1.014, 3-Difluoromethyl-1-methyl-1H-pyrazole-4-carboxylic acid [1-(3-iodo-phenyl)-ethyl]-methoxy-amide]
inhibition at 0.002 % strength [6]: ≥ 80% | inhibition at 0.002 % strength [1]: ≥ 80% | inhibition at 0.002 % strength [2]: ≥ 80% | inhibition at 0.02 % strength [3]: ≥ 80% | inhibition at 0.02 % strength [4]: ≥ 80% | inhibition at 0.02 % strength [7]: ≥ 80% | inhibition at 0.02 % strength [5]: ≥ 80% | melting point: 136 to 138 °C

CON(C(=O)c1cn(C)nc1C(F)F)C(C)c1cccc(-c2ccc(Cl)c(Cl)c2)c1 (centres unmarked) [Compound 1.020, 3-difluoromethyl-1-methyl-1H-pyrazole-4-carboxylic acid [1-(3′,4′-dichloro-biphenyl-3-yl)-ethyl]-methoxy-amide]
inhibition at 0.002 % strength [6]: ≥ 80% | inhibition at 0.002 % strength [1]: ≥ 80% | inhibition at 0.002 % strength [2]: ≥ 80% | inhibition at 0.02 % strength [4]: ≥ 80% | inhibition at 0.02 % strength [5]: ≥ 80% | melting point: 162 to 164 °C

CON(Cc1ccc(Cl)cc1Cl)C(=O)c1cn(C)nc1C(F)F [Compound 1.091, 3-difluoromethyl-1-methyl-1H-pyrazole-4-carboxylic acid (2,4-dichlorobenzyl)-methoxy-amide]
inhibition at 0.002 % strength [1]: ≥ 80% | inhibition at 0.002 % strength [2]: ≥ 80% | inhibition at 0.02 % strength [4]: ≥ 80% | inhibition at 0.02 % strength [7]: 50% | inhibition at 0.02 % strength [5]: ≥ 80%

CON(C(=O)c1cn(C)nc1C(F)F)C(CF)c1ccc(Cl)cc1 (centres unmarked) [Compound 1.107]
curative fungicidal activity (inhibition) [7]: 50%
